Data published in patent US20260232666A1, “COMPOSITIONS AND METHODS FOR INHIBITION OF RAS” (TheRas, Inc., priority 2023, published 2026).

Columns and labels:
[1] = biological target: T1, GDP-loaded KRAS4b (amino acids 1-169) G12C/C118S protein (Homo sapiens, UniProt P01116, C118S/G12C); assay: Covalent cysteine 12 modification by MALDI-TOF MS, GDP-loaded KRAS G12C; assay type: binding; conditions: 15 minutes reaction time point
T1 construct: KRAS4b (amino acids 1-169) G12C/C118S protein; made in house
Method in brief: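 Covalent labelling is scored at 15 min by MALDI-TOF mass spectrometry, using 1 μM protein with compound at a 1:2.5 protein-to-compound ratio at room temperature.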

pERK in NCI-H358 cells = assay: Cell-based pERK HTRF assay (pERK inhibition in H358 cells); conditions: Homo sapiens, NCI-H358, 0.5 h, 30 min incubation
Method in brief: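 NCI-H358 cells were seeded at 4×10^4 cells/well in RPMI/10% FBS, then treated next day for 30 min at 0.25% DMSO (9-point, 3-fold series from 75 μM). Lysates were read by HTRF (d2/Eu cryptate antibody pair, 615 nm emission) after 4–24 h at room temperature to give pERK IC50.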

SMILES | GDP-KRAS G12C percent of modification [1] | IC50 (pERK in NCI-H358 cells) [nM]
C=CC(=O)N1CC[C@@H](N(C)c2nc(OC[C@@]34CCCN3C[C@H](F)C4)nc3c(F)c(-c4nc(N)cc(C)c4C(F)(F)F)c(Cl)cc23)[C@H]1C [Compound 78, 1-[(2R,3R)-3-[[7-[6-amino-4-methyl-3-(trifluoromethyl)-2-pyridyl]-6-chloro-8-fluoro-2-[[(2R,8S)-2-fluoro-1,2,3,5,6,7-hexahydropyrrolizin-8-yl]methoxy]quinazolin-4-yl]-methyl-amino]-2-methyl-pyrrolidin-1-yl]prop-2-en-1-one] | A (percent of modification ≥70%) | < 100
C=CC(=O)N1CC[C@@H](N(C)c2nc(N3CC(N(C)C)C3)nc3c(F)c(-c4ccc(F)c5sc(N)c(C#N)c45)c(C(F)(F)F)cc23)[C@H]1C [Compound 80] | B (50≤percent of modification <70%) | 100 to 1000
C=CC(=O)N1CC[C@@H](N(C)c2nc(OC[C@@H]3C[C@@H](F)CN3C)nc3c(F)c(-c4ccc(F)c5sc(N)c(C#N)c45)c(Cl)cc23)[C@@H]1C [Compound 82] | B (50≤percent of modification <70%) | < 100
C=CC(=O)N1CC[C@@H](N(C)c2nc(OC[C@@H]3CCCN3C)nc3c(F)c(-c4ccc(F)c5sc(N)c(C#N)c45)c(Cl)cc23)[C@@H]1C [Compound 83] | A (percent of modification ≥70%) | < 100
C=CC(=O)N1CC[C@@H](N(CC)c2nc(OC[C@@]34CCCN3C[C@H](F)C4)nc3c(F)c(-c4ccc(F)c5sc(N)c(C#N)c45)c(C(F)(F)F)cc23)[C@@H]1C [Compound 86] | A (percent of modification ≥70%) | < 100
C=CC(=O)N1CC[C@@H](N(C)c2nc(OCC3(CN4CCOCC4)CC3)nc3c(F)c(-c4ccc(F)c5sc(N)c(C#N)c45)c(C(F)(F)F)cc23)[C@H]1C [Compound 87] | C (10%≤percent of modification <50%) | < 100
C=CC(=O)N1CC[C@@H](N(C)c2nc(OC[C@@H]3CCCN3CC)nc3c(F)c(-c4ccc(F)c5sc(N)c(C#N)c45)c(C(F)(F)F)cc23)[C@H]1C [Compound 88] | B (50≤percent of modification <70%) | < 100
C=CC(=O)N1CC[C@@H](N(C)c2nc(OC[C@@]34CCCN3C[C@H](F)C4)nc3c(F)c(-c4ccc(F)c5oc(N)c(C#N)c45)c(C(F)(F)F)cc23)[C@H]1C [Compound 90] | B (50≤percent of modification <70%) | < 100
C=CC(=O)N1CC[C@@H](N(C)c2nc(OC[C@@]34CCCN3C[C@H](F)C4)nc3c(F)c(-c4nc(N)cc(C)c4C(F)(F)F)c(C(F)(F)F)cc23)[C@@H]1C [Compound 91] | A (percent of modification ≥70%) | < 100
C=CC(=O)N1CC[C@@H](N(C)c2nc(OC[C@@H]3CC4(CC4)CN3CC)nc3c(F)c(-c4ccc(F)c5sc(N)c(C#N)c45)c(Cl)cc23)[C@@H]1C [Compound 92] | A (percent of modification ≥70%) | < 100
C=CC(=O)N1CC[C@@H](N(C)c2nc(OC[C@@H]3CC4(CC4)CN3CC)nc3c(F)c(-c4ccc(F)c5sc(N)c(C#N)c45)c(C(F)(F)F)cc23)[C@@H]1C [Compound 95] | A (percent of modification ≥70%) | < 100
C=CC(=O)N1CC[C@@H](N(C)c2nc(OC[C@@H]3CC4(CC4)CN3CC)nc3c(F)c(-c4ccc(F)c5sc(N)c(C#N)c45)c(Cl)cc23)[C@H]1C [Compound 97] | A (percent of modification ≥70%) | < 100
C=CC(=O)N1CC[C@@H](N(C)c2nc(OC[C@@H]3C[C@@H](F)CN3CC)nc3c(F)c(-c4ccc(F)c5sc(N)c(C#N)c45)c(Cl)cc23)[C@H]1C [Compound 98] | D (percent of modification <10%) | 100 to 1000
C=CC(=O)N1CC[C@@H](N(C)c2nc(OC[C@@H]3C[C@@H](OC)CN3CC)nc3c(F)c(-c4ccc(F)c5sc(N)c(C#N)c45)c(Cl)cc23)[C@H]1C [Compound 99] | A (percent of modification ≥70%) | < 100
C=CC(=O)N1CC[C@@H](N(C)c2nc(OC[C@@H]3C[C@@H](OC)CN3CC)nc3c(F)c(-c4ccc(F)c5sc(N)c(C#N)c45)c(Cl)cc23)[C@@H]1C [Compound 100] | A (percent of modification ≥70%) | < 100
